The values below come from US20260001928A1 (CORTERIA PHARMACEUTICALS, priority 2022, published 2026).

pEC50: −log10 of the molar value. *1 amine or outer side, *2 acyl side, *3 side chain or, on linkers, in order; H or OH if unused. Where a SMILES comes first, the peptide text is derived from it. Side-chain parts run from the residue outwards. [ ]: non-standard residue; d: D form. The star is where a group is joined. C18 diacid = O=C(O)CCCCCCCCCCCCCCCCC(=O)*; C16 diacid = O=C(O)CCCCCCCCCCCCCCC(=O)*; γGlu = O=C(O)[C@H](CCC(=O)[*:2])N[*:1]; Pentanoyl = CCCCC(=O)*; AEEA = NCCOCCOCC(=O)O; Aib = CC(C)(N)C(=O)O; Propionyl = CCC(=O)*; Butyryl = CCCC(=O)*

One experiment deals with T1, human CRF2a receptor (Homo sapiens, UniProt Q13324).
T1 construct: expressed in transfected cells; host or cells: TeloHEAC cells
T1 sequence (Q13324 1-411): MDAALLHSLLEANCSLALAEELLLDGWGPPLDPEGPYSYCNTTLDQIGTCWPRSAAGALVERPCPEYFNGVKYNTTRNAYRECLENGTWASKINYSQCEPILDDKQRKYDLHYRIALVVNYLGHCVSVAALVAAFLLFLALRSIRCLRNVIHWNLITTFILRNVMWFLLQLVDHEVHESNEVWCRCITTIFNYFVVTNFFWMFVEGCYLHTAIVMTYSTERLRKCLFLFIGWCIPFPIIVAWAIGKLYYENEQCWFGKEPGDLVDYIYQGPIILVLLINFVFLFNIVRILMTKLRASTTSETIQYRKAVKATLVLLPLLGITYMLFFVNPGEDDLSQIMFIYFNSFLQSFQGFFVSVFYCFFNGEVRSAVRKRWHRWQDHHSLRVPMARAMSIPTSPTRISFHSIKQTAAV
Kind of experiment: Activity at human CRF2a receptor, cAMP functional assay in TeloHEAC cells. It is filed as cell-based. The conditions noted are these: TeloHEAC cells stably expressing human CRF2a receptor, relative to urocortin 2 (100 nM = 100%). The method, boiled down:
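TeloHEAC cells stably expressing human CRF2a (10000 cells/well, suspended in HBSS/20 mM HEPES with 2 mM IBMX) were exposed to compounds for 30 min at 37 °C. cAMP was read as the 665/620 nm fluorescence ratio after 1 h at room temperature. EC50 was derived relative to 100 nM urocortin 2, set as 100%.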

The next experiment has as its target T2, CFR1R receptor (Homo sapiens, UniProt P34998).
T2 construct: host or cells: CHO-K1 (clone 2)
T2 sequence (P34998 24-415): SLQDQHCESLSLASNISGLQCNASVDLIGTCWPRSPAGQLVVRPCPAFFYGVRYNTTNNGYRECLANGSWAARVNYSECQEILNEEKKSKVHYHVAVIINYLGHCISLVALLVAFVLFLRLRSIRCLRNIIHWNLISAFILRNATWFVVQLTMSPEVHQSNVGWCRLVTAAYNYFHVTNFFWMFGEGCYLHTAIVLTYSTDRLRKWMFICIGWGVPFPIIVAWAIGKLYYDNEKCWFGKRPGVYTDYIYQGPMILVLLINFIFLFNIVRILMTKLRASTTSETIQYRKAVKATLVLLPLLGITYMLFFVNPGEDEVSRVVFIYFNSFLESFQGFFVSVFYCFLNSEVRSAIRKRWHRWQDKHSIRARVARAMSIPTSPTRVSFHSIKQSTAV
Kind of experiment: Activity at anti-target CFR1R receptor, cAMP assay in CRF1R-overexpression CHO-K1 cells. It is filed as cell-based. The conditions noted are these: 100% = Sauvagine at 100 nM; for pEC50: cAMP. The method, boiled down: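 Signal is normalised to 100 nM Sauvagine, taken as 100% activation, in clone 2 cells plated at a final 4000 cells/well from frozen stocks.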

As to `CCCC(=O)N[C@H](C(=O)N[C@@H](CC(C)C)C(=O)N[C@@H](CO)C(=O)N[C@@H](CC(C)C)C(=O)N[C@@H](CC(=O)O)C(=O)N[C@@H](C(=O)N1CCC[C@H]1C(=O)N[C@H](C(=O)N[C@@H](CCCCN)C(=O)N[C@@H](CC(C)C)C(=O)N[C@@H](CCCCNC(=O)CC[C@H](NC(=O)CCCCCCCCCCCCCCC(=O)O)C(=O)O)C(=O)N[C@@H](CCCCN)C(=O)N[C@H](C(=O)N[C@@H](CC(C)C)C(=O)N[C@@H](CC(C)C)C(=O)N[C@@H](CCC(=O)O)C(=O)N[C@@H](CCC(N)=O)C(=O)N[C@@H](CCC(=O)O)C(=O)N[C@@H](CCCCN)C(=O)N[C@@H](CCC(N)=O)C(=O)N[C@@H](CCCCN)C(=O)N[C@@H](CCCCN)C(=O)N[C@@H](CCC(N)=O)C(=O)N[C@@H](CCCNC(=N)N)C(=O)N[C@@H](CCC(=O)O)C(=O)N[C@@H](CCC(N)=O)C(=O)N[C@@H](C)C(=O)N[C@@H](CCC(=O)O)C(=O)N[C@H](C(=O)N[C@@H](CC(N)=O)C(=O)NC(C)(C)C(=O)N[C@@H](CCC(N)=O)C(=O)N[C@H](C(=O)N[C@@H](CC(C)C)C(=O)N[C@@H](C)C(=O)N[C@@H](CCC(N)=O)C(=O)N[C@H](C(N)=O)C(C)C)[C@@H](C)CC)[C@@H](C)O)[C@@H](C)CC)[C@@H](C)CC)C(C)C)C(C)C` [compound 79] (Butyryl-VLSLD[dV]PIKLK([γGlu-C16 diacid])KILLEQEKQKKQREQAETN[Aib]QILAQV-NH2), the pEC50 is 9.42 on human CRF2a receptor and < 6.60 on CFR1R receptor. The “Emax (% I)” value on CFR1R receptor is given as 10 % I.
The like results for `CCCCC(=O)N[C@H](C(=O)N[C@@H](CC(C)C)C(=O)N[C@@H](CO)C(=O)N[C@@H](CC(C)C)C(=O)N[C@@H](CC(=O)O)C(=O)N[C@@H](C(=O)N1CCC[C@H]1C(=O)N[C@H](C(=O)N[C@@H](CCCCN)C(=O)N[C@@H](CC(C)C)C(=O)N[C@@H](CCCCNC(=O)CC[C@H](NC(=O)CCCCCCCCCCCCCCC(=O)O)C(=O)O)C(=O)N[C@@H](CCCCN)C(=O)N[C@H](C(=O)N[C@@H](CC(C)C)C(=O)N[C@@H](CC(C)C)C(=O)N[C@@H](CCC(=O)O)C(=O)N[C@@H](CCC(N)=O)C(=O)N[C@@H](CCC(=O)O)C(=O)N[C@@H](CCCCN)C(=O)N[C@@H](CCC(N)=O)C(=O)N[C@@H](CCCCN)C(=O)N[C@@H](CCCCN)C(=O)N[C@@H](CCC(N)=O)C(=O)N[C@@H](CCCNC(=N)N)C(=O)N[C@@H](CCC(=O)O)C(=O)N[C@@H](CCC(N)=O)C(=O)N[C@@H](C)C(=O)N[C@@H](CCC(=O)O)C(=O)N[C@H](C(=O)N[C@@H](CC(N)=O)C(=O)N[C@H](C(=O)N[C@@H](CCC(N)=O)C(=O)N[C@H](C(=O)N[C@@H](CC(C)C)C(=O)N[C@@H](C)C(=O)N[C@@H](CCC(N)=O)C(=O)N[C@H](C(N)=O)C(C)C)[C@@H](C)CC)C(C)C)[C@@H](C)O)[C@@H](C)CC)[C@@H](C)CC)C(C)C)C(C)C` [compound 81] (Pentanoyl-VLSLD[dV]PIKLK([γGlu-C16 diacid])KILLEQEKQKKQREQAETNVQILAQV-NH2) were, in that order, 9.10, < 6.60 and 6 % I.
At human CRF2a receptor, `CCC(=O)N[C@H](C(=O)N[C@@H](CC(C)C)C(=O)N[C@@H](CO)C(=O)N[C@@H](CC(C)C)C(=O)N[C@@H](CC(=O)O)C(=O)N[C@H](C(=O)N1CCC[C@H]1C(=O)N[C@H](C(=O)N[C@@H](CCCCN)C(=O)N[C@@H](CC(C)C)C(=O)N[C@@H](CCCCNC(=O)COCCOCCNC(=O)COCCOCCNC(=O)CC[C@H](NC(=O)CCCCCCCCCCCCCCCCC(=O)O)C(=O)O)C(=O)N[C@@H](CCCCN)C(=O)N[C@H](C(=O)N[C@@H](CC(C)C)C(=O)N[C@@H](CC(C)C)C(=O)N[C@@H](CCC(=O)O)C(=O)N[C@@H](CCC(N)=O)C(=O)N[C@@H](CCC(=O)O)C(=O)N[C@@H](CCCCN)C(=O)N[C@@H](CCC(N)=O)C(=O)N[C@@H](CCCCN)C(=O)N[C@@H](CCCCN)C(=O)N[C@@H](CCC(N)=O)C(=O)N[C@@H](CCCNC(=N)N)C(=O)N[C@@H](CCC(=O)O)C(=O)N[C@@H](CCC(N)=O)C(=O)N[C@@H](C)C(=O)N[C@@H](CCC(=O)O)C(=O)N[C@H](C(=O)N[C@@H](CC(N)=O)C(=O)N[C@@H](CCCCN)C(=O)N[C@@H](CCC(N)=O)C(=O)N[C@H](C(=O)N[C@@H](CC(C)C)C(=O)N[C@@H](C)C(=O)N[C@@H](CCC(N)=O)C(=O)N[C@H](C(N)=O)C(C)C)[C@@H](C)CC)[C@@H](C)O)[C@@H](C)CC)[C@@H](C)CC)C(C)C)C(C)C` [compound 94] (Propionyl-VLSLDVPIKLK([AEEA-AEEA-γGlu-C18 diacid])KILLEQEKQKKQREQAETNKQILAQV-NH2) showed a negative-log EC50 (pEC50) of 8.83. In addition, at CFR1R receptor, the “Emax (% I)” value came to 0 % I and the pEC50 was < 6.60.
The like results for `CCCC(=O)N[C@H](C(=O)N[C@@H](CC(C)C)C(=O)N[C@@H](CO)C(=O)N[C@@H](CC(C)C)C(=O)N[C@@H](CC(=O)O)C(=O)N[C@H](C(=O)N1CCC[C@H]1C(=O)N[C@H](C(=O)N[C@@H](CCCCN)C(=O)N[C@@H](CC(C)C)C(=O)N[C@@H](CCCCNC(=O)COCCOCCNC(=O)COCCOCCNC(=O)CC[C@H](NC(=O)CCCCCCCCCCCCCCCCC(=O)O)C(=O)O)C(=O)N[C@@H](CCCCN)C(=O)N[C@H](C(=O)N[C@@H](CC(C)C)C(=O)N[C@@H](CC(C)C)C(=O)N[C@@H](CCC(=O)O)C(=O)N[C@@H](CCC(N)=O)C(=O)N[C@@H](CCC(=O)O)C(=O)N[C@@H](CCCCN)C(=O)N[C@@H](CCC(N)=O)C(=O)N[C@@H](CCCCN)C(=O)N[C@@H](CCCCN)C(=O)N[C@@H](CCC(N)=O)C(=O)N[C@@H](CCCNC(=N)N)C(=O)N[C@@H](CCC(=O)O)C(=O)N[C@@H](CCC(N)=O)C(=O)N[C@@H](C)C(=O)N[C@@H](CCC(=O)O)C(=O)N[C@H](C(=O)N[C@@H](CC(N)=O)C(=O)N[C@@H](CCCCN)C(=O)N[C@@H](CCC(N)=O)C(=O)N[C@H](C(=O)N[C@@H](CC(C)C)C(=O)N[C@@H](C)C(=O)N[C@@H](CCC(N)=O)C(=O)N[C@H](C(N)=O)C(C)C)[C@@H](C)CC)[C@@H](C)O)[C@@H](C)CC)[C@@H](C)CC)C(C)C)C(C)C` [compound 95] (Butyryl-VLSLDVPIKLK([AEEA-AEEA-γGlu-C18 diacid])KILLEQEKQKKQREQAETNKQILAQV-NH2) were, in that order, 9.12, 5 % I and < 6.60.
For `CC[C@H](C)[C@H](NC(C)=O)C(=O)N[C@H](C(=O)N[C@@H](CC(C)C)C(=O)N[C@@H](CO)C(=O)N[C@@H](CC(C)C)C(=O)N[C@@H](CC(=O)O)C(=O)N[C@H](C(=O)N1CCC[C@H]1C(=O)N[C@H](C(=O)N[C@@H](CCCCN)C(=O)N[C@@H](CC(C)C)C(=O)N[C@@H](CCCCNC(=O)COCCOCCNC(=O)COCCOCCNC(=O)CC[C@H](NC(=O)CCCCCCCCCCCCCCCCC(=O)O)C(=O)O)C(=O)N[C@@H](CCCCN)C(=O)N[C@H](C(=O)N[C@@H](CC(C)C)C(=O)N[C@@H](CC(C)C)C(=O)N[C@@H](CCC(=O)O)C(=O)N[C@@H](CCC(N)=O)C(=O)N[C@@H](CCC(=O)O)C(=O)N[C@@H](CCCCN)C(=O)N[C@@H](CCC(N)=O)C(=O)N[C@@H](CCCCN)C(=O)N[C@@H](CCCCN)C(=O)N[C@@H](CCC(N)=O)C(=O)N[C@@H](CCCNC(=N)N)C(=O)N[C@@H](CCC(=O)O)C(=O)N[C@@H](CCC(N)=O)C(=O)N[C@@H](C)C(=O)N[C@@H](CCC(=O)O)C(=O)N[C@H](C(=O)N[C@@H](CC(N)=O)C(=O)NC(C)(C)C(=O)N[C@@H](CCC(N)=O)C(=O)N[C@H](C(=O)N[C@@H](CC(C)C)C(=O)N[C@@H](C)C(=O)N[C@@H](CCC(N)=O)C(=O)N[C@H](C(N)=O)C(C)C)[C@@H](C)CC)[C@@H](C)O)[C@@H](C)CC)[C@@H](C)CC)C(C)C)C(C)C` [compound 97] (Ac-IVLSLDVPIKLK([AEEA-AEEA-γGlu-C18 diacid])KILLEQEKQKKQREQAETN[Aib]QILAQV-NH2) the same measures were 8.50, 0 % I and < 6.60.
